Patent US10106854B2, “Biomarkers for prostate cancer” (Aarhus Universitet, priority 2012, dated 2018)

Test system: BPH1, PNT1A, LNCaP, 22rv1, PC3 and DU145 cell lines
Assay: 5-aza-dC treatment, RNA extraction and RT-qPCR
Assay type: cell-based, human
Conditions: prostatic cell lines, 1 μM 5-aza-dC for two days, five day recovery; when methylation was reduced, not when DNA methylation levels were unaffected
Description: BPH1, PNT1A, LNCaP, 22rv1, PC3 and DU145 cell lines at >50% confluence were treated with 1 μM freshly prepared 5-aza-2′-deoxycytidine (5-aza-dC) in 50% acetic acid (Sigma, cat. no.: A3656) for two days. After a five day recovery period, DNA was purified as described above. RNA was purified using the RNeasy Mini kit from Qiagen and stored at −80° C. One μg RNA was reverse transcribed using 100 pmol oligo-dT(24) primer and the SuperScript II Reverse Transcriptase kit (Invitrogen). Taqman® gene expression assays: AOX1 (Hs01565232_m1), C1orf114 (Hs00982321_g1), GAS6 (Hs01090305_m1), and HAPLN3 (Hs00820260_m1) were used with Taqman Mastermix no UNG. UBC was used for normalization (primers: 5′-GATTTGGGTCGCGGTTCTT-3′ and 5′-[…]-3′ used with Power Sybr Green Mastermix). Assays were run twice in triplicate in 10 μL reactions. Reactions were mixed and run as described for qMSP assays.

Nc1ncn([C@H]2C[C@H](O)[C@@H](CO)O2)c(=O)n1 [5-aza-dC, 5-aza-2′-deoxycytidine]
RNA expression from DNA hypermethylated genes: generally stimulated RNA expression
